Laboratory results reported in ChEMBL document CHEMBL1146054, “Structural modifications of the cannabinoid side chain towards C3-aryl and 1',1'-cycloalkyl-1'-cyano cannabinoids” (Bioorg Med Chem Lett, 2006).

Assays:
[1] = target: Cannabinoid receptor 2 (Mus musculus, UniProt P47936); assay: Displacement of [3H]CP-55940 from mouse spleen CB2 receptor; format: tissue-based
[2] = target: Cannabinoid receptor 1 (Rattus norvegicus, UniProt P20272); assay: Displacement of [3H]CP-55940 from rat brain CB1 receptor
[3] = Selectivity for rat CB1 receptor over mouse CB2 receptor

Cannabinoid receptor 2, sequence (P47936 whole entry): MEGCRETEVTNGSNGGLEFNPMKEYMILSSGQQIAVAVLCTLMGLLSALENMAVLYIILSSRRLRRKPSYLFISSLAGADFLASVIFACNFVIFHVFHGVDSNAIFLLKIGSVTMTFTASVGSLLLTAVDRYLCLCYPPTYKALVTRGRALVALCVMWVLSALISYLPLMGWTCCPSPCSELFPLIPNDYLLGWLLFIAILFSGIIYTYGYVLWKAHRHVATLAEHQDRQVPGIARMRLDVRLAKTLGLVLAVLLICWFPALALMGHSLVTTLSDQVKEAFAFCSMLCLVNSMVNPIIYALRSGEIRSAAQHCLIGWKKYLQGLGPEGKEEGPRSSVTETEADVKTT
Cannabinoid receptor 1, sequence (P20272 whole entry): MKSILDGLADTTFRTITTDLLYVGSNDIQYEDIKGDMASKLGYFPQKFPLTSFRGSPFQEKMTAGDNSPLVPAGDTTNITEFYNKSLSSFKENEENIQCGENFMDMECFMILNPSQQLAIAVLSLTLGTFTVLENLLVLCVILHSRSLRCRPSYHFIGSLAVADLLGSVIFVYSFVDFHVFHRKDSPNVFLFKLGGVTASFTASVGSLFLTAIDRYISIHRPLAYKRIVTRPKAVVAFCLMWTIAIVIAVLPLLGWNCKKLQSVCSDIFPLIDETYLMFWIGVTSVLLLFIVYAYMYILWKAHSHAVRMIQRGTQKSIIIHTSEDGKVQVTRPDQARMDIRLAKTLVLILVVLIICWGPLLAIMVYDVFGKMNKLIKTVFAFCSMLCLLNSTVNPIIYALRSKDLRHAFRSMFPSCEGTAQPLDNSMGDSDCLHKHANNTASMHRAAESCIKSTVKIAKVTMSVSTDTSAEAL

SMILES | Ki [1] | Ki [2] | Ratio Ki [3]
CC1=CC[C@@H]2[C@@H](C1)c1c(O)cc(C3(C#N)CCCC3)cc1OC2(C)C | 25.2 nM | 27.9 nM | 1.1
CCCCCC#Cc1cc(O)c2c(c1)OC(C)(C)[C@@H]1CC=C(C)C[C@@H]21 |  |  | 0.2
CCCCCc1cc(O)c2c(c1)OC(C)(C)[C@@H]1CC=C(C)C[C@@H]21 |  |  | 1.2
CC1=CC[C@@H]2[C@@H](C1)c1c(O)cc(C34CC5CC(CC(C5)C3)C4)cc1OC2(C)C |  |  | 0.1
CCCc1ccc(-c2cc(O)c3c(c2)OC(C)(C)[C@@H]2CC=C(C)C[C@@H]32)cc1 | 108 nM | 57.8 nM | 0.5
C=C(C)[C@@H]1CCC(C)=C[C@H]1c1c(O)cc(-c2cccc3ccccc23)cc1O | 222 nM | 754 nM | 3.4
CC1=CC[C@@H]2[C@@H](C1)c1c(O)cc(C3(C#N)CCCCC3)cc1OC2(C)C | 3.86 nM | 8.26 nM | 2.1
CC1=CC[C@@H]2[C@@H](C1)c1c(O)cc(-c3ccc(C)cc3)cc1OC2(C)C | 71.8 nM | 95.5 nM | 1.3
C=C(C)[C@@H]1CCC(C)=C[C@H]1c1c(O)cc(-c2ccc(C)cc2)cc1O | 374 nM | 638 nM | 1.7
C=C(C)[C@@H]1CCC(C)=C[C@H]1c1c(O)cc(C2(C#N)CCCCC2)cc1O | 111 nM | 319 nM | 2.9
C=C(C)[C@@H]1CCC(C)=C[C@H]1c1c(O)cc(C2(C#N)CCCC2)cc1O | 105 nM | 255 nM | 2.4
CCc1ccc(-c2cc(O)c3c(c2)OC(C)(C)[C@@H]2CC=C(C)C[C@@H]32)cc1 | 51.7 nM | 119 nM | 2.3
CC1=CC[C@@H]2[C@@H](C1)c1c(O)cc(-c3cccc4ccccc34)cc1OC2(C)C | 9.39 nM | 11.7 nM | 1.2
